# Laboratory results published in PubChem BioAssay (NCI).
#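 Results reflect a 48-hour exposure of cells in 96-well plates to compound at five concentrations. GI50 marks 50% less growth. TGI: concentration producing complete growth inhibition.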
# Key:
# Assay in all cases: growth of human tumour cells (NCI), 48 h
# A498 renal = test system: A498 renal
# HCC-2998 colon = test system: HCC-2998 colon
# NCI-H460 lung = test system: NCI-H460 lung
# CCRF-CEM leukemia = test system: CCRF-CEM leukemia
# NCI/ADR-RES ovarian = test system: NCI/ADR-RES ovarian
# NCI-H522 lung = test system: NCI-H522 lung
# RPMI-8226 leukemia = test system: RPMI-8226 leukemia
# SK-MEL-2 melanoma = test system: SK-MEL-2 melanoma
# SR leukemia = test system: SR leukemia
# HOP-62 NSCLC = test system: HOP-62 NSCLC
# SF-268 CNS = test system: SF-268 CNS
# MDA-N = test system: MDA-N
# SK-OV-3 ovarian = test system: SK-OV-3 ovarian
# SF-539 CNS = test system: SF-539 CNS
SMILES,TGI (A498 renal) [µM],TGI (HCC-2998 colon) [µM],TGI (NCI-H460 lung) [µM],TGI (CCRF-CEM leukemia) [µM],TGI (NCI/ADR-RES ovarian) [µM],TGI (NCI-H522 lung) [µM],TGI (RPMI-8226 leukemia) [µM],TGI (SK-MEL-2 melanoma) [µM],TGI (SR leukemia) [µM],TGI (HOP-62 NSCLC) [µM],TGI (SF-268 CNS) [µM],TGI (MDA-N) [µM],TGI (SK-OV-3 ovarian) [µM],TGI (SF-539 CNS) [µM],GI50 (HCC-2998 colon) [µM]
COc1ccc(OC)c2c(=O)cc(-c3ccccc3)[nH]c12,> 100,> 100,> 100,> 100,> 100,> 100,> 100,> 100,> 100,> 100,> 100,> 100,> 100,–,–
CCOC(=O)C(NC(=O)NCc1ccc(F)cc1)C(F)(F)F (stereo not drawn),> 100,> 100,–,> 100,> 100,–,> 100,> 100,> 100,–,> 100,> 100,> 100,> 100,–
CC1=CC[C@@]2(C)[C@@H]([C@@H]1C)[C@H]1CC[C@@H]3[C@@]4(C)CC[C@H](O)C(C)(C)[C@@H]4CC[C@@]3(C)[C@]1(C)C[C@@H]2O,> 39.8,37.9,> 67.7,> 53.1,61.7,8.15,> 100,> 59,7.34,38.6,25.2,> 55.4,> 64.7,> 55.7,–
COC(=O)C1=C(C(=O)OC)C(C(=O)c2ccccc2)N2N=C(c3ccc(Cl)cc3)C=CC12 (stereo not drawn),> 100,> 100,> 100,> 100,> 100,43.5,80.1,> 100,> 100,> 100,> 100,> 100,> 100,> 100,–
C/C(=C\c1csc(C)n1)[C@@H]1C[C@@H]2O[C@]2(C)CCC[C@H](C)[C@H](O)[C@@H](C)C(=O)C(C)(C)[C@@H](O)CC(=O)O1 (tested in a mixture with another compound),> 1,–,> 1,–,0.13,0.00766,> 0.172,> 0.464,> 0.239,> 1,> 1,0.00205,> 0.72,0.0348,0.00305
NC(=O)CC1(O)C=CC(=O)C=C1,> 100,> 100,> 100,> 100,> 100,> 100,> 100,> 100,> 100,> 100,–,> 100,> 100,> 100,–
CN(C)Cc1cc(C(=O)/C=C/c2c(Cl)cccc2Cl)cc(CN(C)C)c1O,22.5,34.7,13,59,41,10.7,39,–,22.6,20.2,32.4,12.7,–,34.4,–
Cc1cc(C)n(C(=O)C(C)Sc2nnc(SC(C)C(=O)n3nc(C)cc3C)s2)n1 (stereo not drawn),> 100,> 100,> 100,> 100,> 100,–,> 100,> 100,> 100,> 100,> 100,> 100,> 100,–,–
CC1=C(C#N)C(=O)N(/N=C/c2ccc(Cl)cc2)C(=O)/C1=c1\o/c(=C2/C(=O)N(/N=C/c3ccc(Cl)cc3)C(=O)C(C#N)=C2C)c2nccnc12,> 100,> 100,> 100,> 100,> 100,> 100,> 100,> 100,> 100,–,> 100,> 100,> 100,> 100,–
CNC(=O)C(C)NC(=O)C(Cc1ccccc1)NC(=O)OC(C)(C)C (stereo not drawn),> 100,> 100,> 100,> 100,> 100,> 100,> 100,> 100,> 100,> 100,> 100,> 100,> 100,> 100,–
CCC/C(Cl)=N\OC(=O)Nc1ccc(Br)cc1,32.2,32.9,34.6,4.3,40.5,3.53,12.2,28.9,18.4,42.6,46.2,27.3,30.5,32.9,–
COC(=O)CC1CN(C(=O)OCc2ccccc2)C(C)(C)O1 (stereo not drawn),> 100,> 100,> 100,> 100,> 100,> 100,> 100,> 100,> 100,–,–,> 100,> 100,> 100,–
CC(=O)NNc1nc(C)c(C(/C=C/c2ccccc2O)=N/NC(=O)c2ccncc2)s1,> 100,> 100,> 100,> 100,> 100,> 100,> 100,> 100,> 100,> 100,> 100,> 100,> 100,> 100,–
C=C1[C@H](OCC(C)C)[C@@H](OCC(C)C)[C@@H](O)C(C)(C)/C=C/[C@H](C)C(=O)[C@@]2(O)C[C@H](C)[C@H](O)[C@@H]2[C@H]1OCC(C)C,> 7.5,> 7.5,> 7.5,–,> 7.5,> 7.5,–,> 7.5,> 7.5,> 7.5,> 7.5,> 7.5,> 7.5,> 7.5,–
CC1=C(C(=O)OC23CC4CC(CC(C4)C2)C3)C(c2ccccc2OC(F)F)C(C(=O)OC23CC4CC(CC(C4)C2)C3)=C(C)N1 (stereo not drawn),> 100,> 100,> 100,> 100,> 100,> 100,> 100,> 100,> 100,> 100,> 100,> 100,> 100,> 100,–
c1ccc2c(OCC3CO3)ccc(OCC3CO3)c2c1 (stereo not drawn),33.9,24.1,12.5,11.2,31.1,22.5,9.44,–,11.1,10.9,12.1,13,26.6,4.8,–
CC(C)[Si](OCC/C=C/C1CCC(=O)C1C(O)C1CCCCC1)(C(C)C)C(C)C (stereo not drawn),33.9,23.2,30.7,44.6,27.6,25.3,32.8,26.9,14.8,31.3,24.7,36.4,30.3,40.6,–
Cc1ccc(S(=O)(=O)Oc2coc(CO)cc2=O)cc1,30.2,27,31.1,10.7,> 69.5,3.71,36.5,57.6,> 85.5,34,44.8,25.8,37.7,87.8,–
COc1ccc2c(c1)-c1c(c3ccccc3n1CCN1CCCCC1)CC2,> 100,19.2,32.4,74,34.4,28.6,36.3,16.7,30.9,> 63.1,> 95.5,67.5,53,39.3,–
COc1c(C(CC(C)C)OC(C)=O)ccc2c1C(=O)OCc1cc(C)cc(O)c1O2 (stereo not drawn),34.7,25.4,26.8,> 100,32.2,26.2,> 100,33.4,> 100,32.8,27.9,29.9,31,32.9,–
CCC1=NC(N/N=C/c2ccccc2O)=N/C1=C\c1ccccc1O,85.4,36.4,18.7,> 100,24,21,53.8,66.2,> 100,39.2,> 66.9,> 100,76.2,–,–
CC1=C/C(=N\N(C)C)C(C(O)(C(F)(F)F)C(F)(F)F)C(C)(C)C1 (stereo not drawn),> 100,> 100,> 100,> 100,> 100,> 100,> 100,> 100,> 100,> 100,> 100,> 100,–,> 100,–
COC(=O)C(Cc1ccccc1)C(=O)NC(CNC(=O)OCc1ccccc1)C(=O)OCc1ccccc1 (stereo not drawn),> 81.4,> 95.4,> 100,48.9,> 100,72.3,50.2,97.4,> 69.2,> 100,> 100,58,> 100,> 100,–
COc1ccc2cc(CNCCCN3CCN(CCCNCc4ccc5cc(OC)ccc5c4)CC3)ccc2c1,3.07,0.643,2.87,1.3,6.51,3.81,0.577,3.42,0.658,3.13,3.32,2.78,2.72,3.39,–
O=C(O)c1ccccc1C(=O)OCC1CCCN2CCCCC12 (stereo not drawn),> 100,> 100,> 100,> 100,> 100,–,> 100,> 100,> 100,> 100,> 100,> 100,> 100,> 100,–
c1ccc2c(c1)n1c(N3CCOCC3)[n+]3ccccc3c1c1c3cccc[n+]3c(N3CCOCC3)n21,> 100,> 100,> 100,> 100,> 100,> 100,> 100,> 100,> 100,–,68.2,> 100,–,> 100,–
CCN(CC)CCN1CCN=c2c3cc(OC)ccc3n3cnc4ccc1c2c43,1.82,2.13,0.724,1.71,2.39,3.86,1.3,2.18,1.64,3.46,2.54,1.79,5.16,0.969,–
COC(=O)c1cccc(C)c1C1CN=NC12Cc1c(ccc(C)c1C)C2=O (stereo not drawn),> 100,> 100,> 100,> 100,> 100,> 100,96.2,–,> 100,> 100,> 100,> 100,–,> 100,–
O=c1[nH]c2nccn2c(Cl)c1Br,> 100,36,> 100,46.7,73.2,29.8,> 100,16.3,48.7,> 100,49.1,45.8,86.9,> 100,–
